According to patent publication US7544676B2, “Sulfamoyl benzamides and methods of their use” (Adolor Corporation, priority 2005, dated 2009):

Legend:
[1] = target: T1, CB2 receptor (Homo sapiens, UniProt P34972); assay: hCB2-mediated [35S]GTPγS binding; assay type: biochemical
T1 construct: expressed in transfected cells; host or cells: CHO-K1
Method: (§1) EC50 values in functional assays were also derived from automated nonlinear regression analysis of sigmoidal titration curves using the three-parameter modification of the four-parameter equation.
(§2) Chinese hamster ovary cells (CHO-K1), stably transfected with either hCB1 or hCB2, were washed two times with cold PBS, scraped from 500 cm^2 tissue culture plates, and pelleted by centrifugation at 1000×g for 10 min. […]
(§3) hCB1-Mediated stimulation of [^35S]GTPγS binding was measured in a mixture containing 100-150 pM [^35S]GTPγS, 150 mM NaCl, 45 mM MgCl2, […], 0.4 mM DTT, 1 mM EGTA, 1 mg/mL fatty acid free BSA, 25 μg of membrane protein and agonist in a total volume of 250 μL of buffer A in 96 well Basic Flashplates (Perkin Elmer). After incubation at room temperature for 2 hours the plates were centrifuged at 800×g at 4° C. for 5 min and the radioactivity bound to the membranes was determined by scintillation spectrometry using the Topcount (Perkin Elmer).
hCB2-Mediated [35 S]GTPγS binding was measured in the same way except the assay mixture contained […] and the incubation time was 6 hours. […] After incubation at 30° C. for 2 hours, the plates were centrifuged at 800×g at 4° C. for 5 min and the radioactivity bound to the membrane was determined by scintillation spectrometry using the Topcount (Perkin Elmer).

[2] = target: T2, CB1 receptor (Homo sapiens, UniProt P21554); assay: Inhibition of [3H]CP55940 binding to cloned human CB1 receptor membranes
T2 construct: expressed in transfected cells; host or cells: CHO-K1
Method: (§4) Ki values in receptor binding experiments were determined by Cheng-Prusoff correction of IC50 values derived from automated nonlinear regression analysis of sigmoidal titration curves using a three-parameter modification (slope set to 1.0) of the four-parameter equation described in Cheng, Y.-C. and W. H. Prusoff, Biochem. Pharmacol. 22:3099-3108 (1973) and DeLean et al., Am. J. Physiol. 235:E97-E102 (1978).
as §2
(§5) Binding assays were performed by incubating 0.2-0.6 nM (34,000-100,000 dpm) [^3H]CP55940 with membranes prepared from cells expressing cloned human CB1 or CB2 receptors in buffer A (50 mM Tris HCl, pH 7.0, 5.0 mM MgCl2, 1.0 mM EGTA and 1.0 mg/mL fatty acid free bovine serum albumin). […] The filters were rinsed 6 times with one mL of cold wash buffer (50 mM Tris HCl, pH 7.0, 5.0 mM MgCl2, 1.0 mM EGTA and 0.75 mg/mL fatty acid free bovine serum albumin), 30 μL of MicroScint 20 was added to each filter and the radioactivity on the filters determined by scintillation spectroscopy. Nonspecific binding was determined in the presence of 10 μM WIN55212-2.

[3] = target: T1, CB2 receptor; assay: Inhibition of [3H]CP55940 binding to cloned human CB2 receptor membranes
Method: as §4, §2, §5

[4] = target: T2, CB1 receptor; assay: hCB1-mediated stimulation of [35S]GTPγS binding; assay type: biochemical; conditions: in vitro functional assay
Method: as §1
Chinese hamster ovary cells (CHO-K1), stably transfected with either hCB1 or hCB2, were washed two times with cold PBS, scraped from 500 cm^2 tissue culture plates, and pelleted by centrifugation at 1000×g for 10 min. The supernatant was discarded and the pellet was resuspended in Tris assay buffer (50 mM Tris HCl, pH 7.8, containing 1.0 mM EGTA, 5.0 mM MgCl2, […], and […] aprotinin), homogenized with a Polytron homogenizer (Brinkmann) at a setting of 1 for 20 sec and centrifuged at 38,000×g for 20 min at 4° C. […]
as §3

T2 sequence (P21554 whole entry): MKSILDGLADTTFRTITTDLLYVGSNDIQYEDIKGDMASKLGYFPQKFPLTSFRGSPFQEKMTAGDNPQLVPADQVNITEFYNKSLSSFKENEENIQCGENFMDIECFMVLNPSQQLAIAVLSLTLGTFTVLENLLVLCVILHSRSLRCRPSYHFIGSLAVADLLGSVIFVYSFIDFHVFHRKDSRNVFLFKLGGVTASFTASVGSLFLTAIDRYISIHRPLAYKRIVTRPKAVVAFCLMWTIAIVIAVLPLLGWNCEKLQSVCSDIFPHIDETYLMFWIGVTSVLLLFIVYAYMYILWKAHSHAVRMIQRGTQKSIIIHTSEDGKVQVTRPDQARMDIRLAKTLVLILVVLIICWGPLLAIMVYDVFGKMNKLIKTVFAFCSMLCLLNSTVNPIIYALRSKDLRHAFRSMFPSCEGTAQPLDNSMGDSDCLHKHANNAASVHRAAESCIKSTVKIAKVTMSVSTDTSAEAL
T1 sequence (P34972 whole entry): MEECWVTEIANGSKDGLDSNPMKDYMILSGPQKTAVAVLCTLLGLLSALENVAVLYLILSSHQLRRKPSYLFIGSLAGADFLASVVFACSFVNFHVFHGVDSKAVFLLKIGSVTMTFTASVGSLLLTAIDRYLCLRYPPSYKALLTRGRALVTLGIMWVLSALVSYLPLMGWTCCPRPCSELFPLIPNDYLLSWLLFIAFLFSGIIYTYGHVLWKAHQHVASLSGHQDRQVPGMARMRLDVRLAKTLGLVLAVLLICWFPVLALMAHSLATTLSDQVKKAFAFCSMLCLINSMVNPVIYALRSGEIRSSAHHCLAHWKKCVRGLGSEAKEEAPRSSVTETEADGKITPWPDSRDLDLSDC

Compound | EC50 ([1]; agonist mode, read-out: in vitro CB2 receptor agonist potency (EC50)) [µM] | Ki [2] [µM] | Ki [3] [µM] | in vitro CB1 receptor agonist activity [4] | IC50 ([1]; antagonist mode, read-out: in vitro CB2 receptor antagonist potency (IC50)) [µM]
CNc1ccc(C(=O)N[C@@H]2C(C)(C)[C@@H]3CC[C@@]2(C)C3)cc1S(=O)(=O)N(C)C [Compound 1X, 3-(N,N-dimethylsulfamoyl)-4-(methylamino)-N-((1S,2S,4R)-1,3,3-trimethylbicyclo[2.2.1]heptan-2-yl)benzamide] | 0.0186 | 1.93 | 0.0089 | no in vitro CB1 receptor agonist activity | 
COCCNc1ccc(C(=O)NC2C(C)(C)[C@@H]3CC[C@@]2(C)C3)cc1S(=O)(=O)N1CCOCC1 (stereo partly drawn) [Compound 2D, 4-(2-methoxyethylamino)-3-(morpholinosulfonyl)-N-((1S,4R)-1,3,3-trimethylbicyclo[2.2.1]heptan-2-yl)benzamide] |  | 1.31 | 0.0016 |  | 0.0085
